In brackets after ≈: the same amount, converted by molar mass. Read-outs that look alike come from different tables or passages of the source.
Columns and labels:
MSSA = test: Test A antibacterial assay, broth microdilution MIC; type: cell-based; conditions: Staphylococcus aureus, read-out: MIC MSSA
Experimental: (§1) Antibacterial activity can be determined as per Clinical and Laboratory Standards Institute (CLSI) guidelines using a broth microdilution assay in which log-phase bacteria are grown at 37° C. in appropriate medium containing two-fold serial dilutions of a compound to yield final concentrations ranging from 256 to 0.06 μg/mL. For determination of minimal inhibitory concentration (MIC) values, bacterial growth is monitored after 24 to 48 hours by measuring optical density at 600 nm.

MRSA = test: as above; type: cell-based; conditions: Staphylococcus aureus, read-out: MIC MRSA
Experimental: as §1

[1] = MIC determined in the presence of 50% mouse serum
[2] = MIC values may be lower as solubility and aggregate formation may reduce observed activity

Row | Structure (SMILES) | MIC (MSSA) | MIC (MRSA) | MIC (MSSA; [1]) | MIC (MSSA; [2]) | MIC (MRSA; [2])
1 | O=CNC(=O)c1c(F)ccc(OCc2nc3cc(Cl)ccc3s2)c1F [Example 1] | 0.25 µg/mL (≈ 0.653 µM) | 0.125 µg/mL (≈ 0.327 µM) |  |  | 
2 | CN(C)/C=N/C(=O)c1c(F)ccc(OCc2nc3cc(Cl)ccc3s2)c1F [Example 1b, 3-((5-Chlorobenzo[d]thiazol-2-yl)methoxy)-N-((dimethylamino)methylene)-2,6-difluorobenzamide] | 0.125 µg/mL (≈ 0.305 µM) | 0.125 µg/mL (≈ 0.305 µM) |  |  | 
3 | CC(=O)NC(=O)c1c(F)ccc(OCc2nc3cc(Cl)ccc3s2)c1F [Example 2] | 2 µg/mL (≈ 5.04 µM) | 4 µg/mL (≈ 10.1 µM) |  |  | 
4 | C/C(=N\C(=O)c1c(F)ccc(OCc2nc3cc(Cl)ccc3s2)c1F)N(C)C [Example 2a, 3-((5-Chlorobenzo[d]thiazol-2-yl)methoxy)-N-(1-(dimethylamino)ethylidene)-2,6-difluorobenzamide] | 2 µg/mL (≈ 4.72 µM) | 4 µg/mL (≈ 9.44 µM) |  |  | 
5 | O=CNC(=O)c1c(F)ccc(OCc2nc3cc(Cl)cnc3s2)c1F [Example 3] | 0.5 µg/mL (≈ 1.3 µM) | 0.5 µg/mL (≈ 1.3 µM) |  |  | 
6 | CN(C)/C=N/C(=O)c1c(F)ccc(OCc2nc3cc(Cl)cnc3s2)c1F [Example 3b, 3-((6-Chlorothiazolo[5,4-b]pyridin-2-yl)methoxy)-N-((dimethylamino)methylene)-2,6-difluorobenzamide] | 0.5 µg/mL (≈ 1.22 µM) | 1 µg/mL (≈ 2.43 µM) |  |  | 
7 | CC(=O)NC(=O)c1c(F)ccc(OCc2nc3cc(Cl)cnc3s2)c1F [Example 4] |  |  | 2 µg/mL |  | 
8 | C/C(=N\C(=O)c1c(F)ccc(OCc2nc3cc(Cl)cnc3s2)c1F)N(C)C [Example 4a, 3-((6-Chlorothiazolo[5,4-b]pyridin-2-yl)methoxy)-N-(1-(dimethylamino)ethylidene)-2,6-difluorobenzamide] | 4 µg/mL (≈ 9.41 µM) | 4 µg/mL (≈ 9.41 µM) |  |  | 
9 | CCCC(=O)NC(=O)c1c(F)ccc(OCc2nc3cc(Cl)ccc3s2)c1F [Example 6] |  |  |  | 0.5 µg/mL (≈ 1.18 µM) | 1 µg/mL (≈ 2.35 µM)
10 | O=C(NC(=O)C1CCCCC1)c1c(F)ccc(OCc2nc3cc(Cl)ccc3s2)c1F [Example 7] |  |  |  | 0.5 µg/mL (≈ 1.08 µM) | 
11 | CN1CCC(C(=O)NC(=O)c2c(F)ccc(OCc3nc4cc(Cl)ccc4s3)c2F)CC1 [Example 8] | 0.5 µg/mL (≈ 1.04 µM) | 0.5 µg/mL (≈ 1.04 µM) |  |  | 
12 | O=C(NC(=O)c1c(F)ccc(OCc2nc3cc(Cl)ccc3s2)c1F)c1ccccc1 [Example 9] |  |  |  | 0.5 µg/mL (≈ 1.09 µM) | 
13 | O=C(CCl)NC(=O)c1c(F)ccc(OCc2nc3cc(Cl)ccc3s2)c1F [Example 10] | 0.125 µg/mL (≈ 0.29 µM) | 0.25 µg/mL (≈ 0.58 µM) |  |  | 
14 | CC1CCN(CC(=O)NC(=O)c2c(F)ccc(OCc3nc4cc(Cl)ccc4s3)c2F)CC1 [Example 11] | 0.5 µg/mL (≈ 1.01 µM) | 1 µg/mL (≈ 2.02 µM) |  |  | 
15 | O=C(Cn1ccnc1)NC(=O)c1c(F)ccc(OCc2nc3cc(Cl)ccc3s2)c1F [Example 12] | 0.125 µg/mL (≈ 0.27 µM) | 0.25 µg/mL (≈ 0.54 µM) |  |  | 
16 | O=C(NC(=O)c1c(F)ccc(OCc2nc3cc(Cl)ccc3s2)c1F)c1ccc(CCl)cc1 [Example 13] |  |  | 4 µg/mL |  | 
17 | O=C(c1c(F)ccc(OCc2nc3cc(Cl)ccc3s2)c1F)N(C(=O)C(F)(F)F)C(=O)C(F)(F)F [Example 14] |  |  | 2 µg/mL |  | 
18 | CS(=O)(=O)NC(=O)c1c(F)ccc(OCc2nc3cc(Cl)ccc3s2)c1F [Example 15] | 8 µg/mL (≈ 18.5 µM) | 8 µg/mL (≈ 18.5 µM) |  |  | 
19 | O=C(NCO)c1c(F)ccc(OCc2nc3cc(Cl)ccc3s2)c1F [Example 16] | 2 µg/mL (≈ 5.2 µM) | 2 µg/mL (≈ 5.2 µM) |  |  | 
20 | O=C(NC(=O)c1c(F)ccc(OCc2nc3cc(Cl)ccc3s2)c1F)c1c(Cl)ccnc1Cl [Example 18] | > 64 µg/mL | > 64 µg/mL |  |  | 
21 | O=C(NC(=O)c1c(F)ccc(OCc2nc3cc(Cl)ccc3s2)c1F)c1ccnc(Cl)c1Cl [Example 19] | > 64 µg/mL | 4 µg/mL (≈ 7.56 µM) |  |  | 
22 | CC(C)(C)C(=O)NC(=O)c1c(F)ccc(OCc2nc3cc(Cl)ccc3s2)c1F [Example 20] | > 64 µg/mL | 4 µg/mL (≈ 9.11 µM) |  |  | 
23 | O=C(Cc1ccccc1)NC(=O)c1c(F)ccc(OCc2nc3cc(Cl)ccc3s2)c1F [Example 21] | > 64 µg/mL | 2 µg/mL (≈ 4.23 µM) |  |  | 
24 | O=C(NC(=O)C1CCC1)c1c(F)ccc(OCc2nc3cc(Cl)ccc3s2)c1F [Example 22] | 0.5 µg/mL (≈ 1.14 µM) | 2 µg/mL (≈ 4.58 µM) |  |  | 
25 | O=C(NC(=O)c1c(F)ccc(OCc2nc3cc(Cl)ccc3s2)c1F)Oc1ccccc1 [Example 32, Phenyl(3-((5-chlorobenzo[d]thiazol-2-yl)methoxy)-2,6-difluorobenzoyl)carbamate] | 4 µg/mL (≈ 8.42 µM) | 4 µg/mL (≈ 8.42 µM) |  |  | 

Now from value to molecule:

Row | MIC (MSSA) | MIC (MRSA) | MIC (MSSA; [1]) | MIC (MSSA; [2]) | MIC (MRSA; [2]) | Structure (SMILES)
26 | > 64 µg/mL | 2 µg/mL (≈ 4.11 µM) |  |  |  | CC(C(=O)NC(=O)c1c(F)ccc(OCc2nc3cc(Cl)ccc3s2)c1F)c1ccccc1 (stereo not shown) [Example 23]
27 | > 64 µg/mL | > 64 µg/mL |  |  |  | O=C(NC(=O)c1c(F)ccc(OCc2nc3cc(Cl)ccc3s2)c1F)c1c(Cl)cccc1Cl [Example 24]
28 | > 64 µg/mL | 2 µg/mL (≈ 4.56 µM) |  |  |  | CCC(C)C(=O)NC(=O)c1c(F)ccc(OCc2nc3cc(Cl)ccc3s2)c1F (stereo not shown) [Example 25]
29 | > 64 µg/mL | 8 µg/mL (≈ 19.4 µM) |  |  |  | COC(=O)NC(=O)c1c(F)ccc(OCc2nc3cc(Cl)ccc3s2)c1F [Example 26]
30 | > 64 µg/mL | > 64 µg/mL |  |  |  | CN(C)C(=O)NC(=O)c1c(F)ccc(OCc2nc3cc(Cl)ccc3s2)c1F [Example 27]
31 | > 64 µg/mL | 8 µg/mL (≈ 18.7 µM) |  |  |  | CCOC(=O)NC(=O)c1c(F)ccc(OCc2nc3cc(Cl)ccc3s2)c1F [Example 28]
32 | 8 µg/mL (≈ 15.4 µM) | 32 µg/mL (≈ 61.7 µM) |  |  |  | COc1cccc(COC(=O)NC(=O)c2c(F)ccc(OCc3nc4cc(Cl)ccc4s3)c2F)c1 [Example 29]
33 | > 64 µg/mL | 2 µg/mL (≈ 4.54 µM) |  |  |  | CC(C)OC(=O)NC(=O)c1c(F)ccc(OCc2nc3cc(Cl)ccc3s2)c1F [Example 30]
34 | > 64 µg/mL | 4 µg/mL (≈ 8.99 µM) |  |  |  | O=C(NC(=O)c1c(F)ccc(OCc2nc3cc(Cl)ccc3s2)c1F)OCCF [Example 31]
35 | > 64 µg/mL | > 64 µg/mL |  |  |  | CN1CCN(C(=O)NC(=O)c2c(F)ccc(OCc3nc4cc(Cl)ccc4s3)c2F)CC1 [Example 33]
36 | 32 µg/mL (≈ 64.5 µM) | 4 µg/mL (≈ 8.07 µM) |  |  |  | CN1CCC(OC(=O)NC(=O)c2c(F)ccc(OCc3nc4cc(Cl)ccc4s3)c2F)CC1 [Example 34, 1-methylpiperidin-4-yl (3-((5-chlorobenzo[d]thiazol-2-yl)methoxy)-2,6-difluorobenzoyl)carbamate]
37 | 0.25 µg/mL (≈ 0.519 µM) | 2 µg/mL (≈ 4.15 µM) |  |  |  | CN1CCN(C(=O)NC(=O)c2c(F)ccc(OCc3nc4cc(Cl)cnc4s3)c2F)CC1 [Example 35]
38 | > 64 µg/mL | > 64 µg/mL |  |  |  | CC(=O)NC(=O)c1c(F)ccc(OCc2cccc(-c3ccc(C(C)(C)C)cc3)c2)c1F [Example 36]
39 | > 64 µg/mL | 8 µg/mL (≈ 14 µM) |  |  |  | CC(C)(C)c1cc(C(=O)NC(=O)c2c(F)ccc(OCc3nc4cc(Cl)ccc4s3)c2F)cc(C(C)(C)C)c1 [Example 37]
40 | > 64 µg/mL | > 64 µg/mL |  |  |  | CC(=O)NC(=O)c1cccc(OCc2nc3cc(Cl)ccc3s2)c1 [Example 38]
41 | > 64 µg/mL | > 64 µg/mL |  |  |  | CC(=O)NC(=O)c1c(N2CCN(C)CC2)ccc(OCc2nc3cc(Cl)ccc3s2)c1F [Example 39]
42 | > 64 µg/mL | 2 µg/mL (≈ 4.55 µM) |  |  |  | CCC(C)C(=O)NC(=O)c1c(F)ccc(OCc2nc3cc(Cl)cnc3s2)c1F (stereo not shown) [Example 40]
43 | 4 µg/mL (≈ 8.04 µM) | 8 µg/mL (≈ 16.1 µM) |  |  |  | CN1CCC(C(=O)NC(=O)c2c(Cl)ccc(OCc3nc4cc(Cl)cnc4s3)c2F)CC1 [Example 41]
44 | 1 µg/mL (≈ 1.58 µM) | 16 µg/mL (≈ 25.3 µM) |  |  |  | CN1CCC(C(=O)NC(=O)c2c(F)ccc(OC(CO)c3nc(-c4ccc(C(F)(F)F)cc4)c(Br)o3)c2F)CC1 (stereo not shown) [Example 42]
45 | 64 µg/mL (≈ 137 µM) | 64 µg/mL (≈ 137 µM) |  |  |  | CCC(=O)N(C(=O)CC)C(=O)c1c(F)ccc(OCc2nc3cc(Cl)ccc3s2)c1F [Example 43]
46 | 1 µg/mL (≈ 1.62 µM) | 4 µg/mL (≈ 6.47 µM) |  |  |  | CN1CCC(C(=O)NC(=O)c2c(F)ccc(OCc3nc(-c4ccc(OC(F)(F)F)cc4)c(Br)o3)c2F)CC1 [Example 46]
47 | 0.0625 µg/mL (≈ 0.112 µM) | 1 µg/mL (≈ 1.8 µM) |  |  |  | CN1CCC(C(=O)NC(=O)c2c(F)ccc(OCc3nc(-c4ccc(OC(F)(F)F)cc4)ns3)c2F)CC1 [Example 47]
48 | 8 µg/mL (≈ 18.3 µM) | 8 µg/mL (≈ 18.3 µM) |  |  |  | CC(C)c1csc(COc2ccc(F)c(C(=O)NC(=O)C3CCN(C)CC3)c2F)n1 [Example 48]
49 | 2 µg/mL (≈ 3.31 µM) | 16 µg/mL (≈ 26.5 µM) |  |  |  | CN1CCC(C(=O)NC(=O)c2c(F)ccc(OCc3nc(-c4ccc(C(F)(F)F)cn4)c(Br)o3)c2F)CC1 [Example 49]
50 | 1 µg/mL (≈ 1.85 µM) | 4 µg/mL (≈ 7.39 µM) |  |  |  | CN1CCC(C(=O)NC(=O)c2c(F)ccc(OCc3nc(-c4ccc(C(F)(F)F)cn4)ns3)c2F)CC1 [Example 50]
51 | > 64 µg/mL | > 64 µg/mL |  |  |  | CNC(=O)NC(=O)c1c(F)ccc(OCc2nc3cc(Cl)ccc3s2)c1F [Example 51]

— US10071082B2, “Antimicrobial agents” (Rutgers, The State University of New Jersey, priority 2013, dated 2018)
